Data as given in patent US8268801B2 (priority 2007, dated 2012).

Test system: T cell clone Z4B27
Assay: Antigen presentation assay: IFN-γ release by T cell clone Z4B27
Format: cell-based
Settings: CD1+ APC preincubated 2 h with sonicated antigen 1-10 μg/mL, 36 h, ELISA; FIG. 1; compared with unsulfated compound f and saturated comparative compound
Description: The release of IFN-γ produced by T cell clone Z4B27 prepared in accordance with the method disclosed in WO 2004/092192 in response to stimulation by the compounds of the invention was measured.
CD1+APC were preincubated at 5×10^4 cells/well for 2 h at 37° C. with sonicated antigen (1-10 μg/mL) before addition of T cells (5×10^4/well in triplicate). After 36 h released TNF-α and IFN-γ were measured using sandwich ELISA kits (Instrumentation Laboratory). Data are expressed as mean ng/mL or pg/mL±SD of triplicates. All experiments were repeated at least 2 times.

`CCCCCCCCCCCCCCCCC(C)CC(C)CC(C)C=C(C)C(=O)OC1C(O)C(CO)OC(OC2OC(CO)C(O)C(O)C2OS(=O)(=O)O)C1OC(=O)CCCCCCCCCCCCCCC` [compound e, 2′-O-Sulfate-2-O-hexadecanoyl-3-O-[(4S,6S,8S)-2,4,6,8-tetramethyltetracos-2-enoyl]-α,α′-D-trehalose] was tested, and the “IFN-γ produced by T cell clone Z4B27 in response to stimulation” value was “better activity”.
